The values below come from publication PMC4274187 (Bioorganic & medicinal chemistry, 2014).

For assay [1], the target named is dopamine transporter (DAT) (Mus musculus, UniProt Q61327). Nature of the assay: DAT binding, [125I]RTI-121, mouse striatal membranes. The following applies: for inhibition at 10 µM: read-out: DAT % Inh.
Another assay has as its target σ1 receptors. The following applies: read-out: apparent affinity for σ1 receptors; more recent determination; cited from earlier work.
Assay [2] deals with norepinephrine transporter. The following applies: cited from earlier work.
Assay [3] addresses serotonin transporter (SERT) (Mus musculus, UniProt Q60857). Nature of the assay: SERT binding, [3H]paroxetine, mouse whole brain membranes. The following applies: ratio of DAT and SERT Ki.
Assay [4] concerns the target vesicular acetylcholine transporter. The following applies: read-out: vesicular acetylcholine transporter Ki; secondary interaction; cited from earlier work.

dopamine transporter (DAT), sequence (Q61327 whole entry): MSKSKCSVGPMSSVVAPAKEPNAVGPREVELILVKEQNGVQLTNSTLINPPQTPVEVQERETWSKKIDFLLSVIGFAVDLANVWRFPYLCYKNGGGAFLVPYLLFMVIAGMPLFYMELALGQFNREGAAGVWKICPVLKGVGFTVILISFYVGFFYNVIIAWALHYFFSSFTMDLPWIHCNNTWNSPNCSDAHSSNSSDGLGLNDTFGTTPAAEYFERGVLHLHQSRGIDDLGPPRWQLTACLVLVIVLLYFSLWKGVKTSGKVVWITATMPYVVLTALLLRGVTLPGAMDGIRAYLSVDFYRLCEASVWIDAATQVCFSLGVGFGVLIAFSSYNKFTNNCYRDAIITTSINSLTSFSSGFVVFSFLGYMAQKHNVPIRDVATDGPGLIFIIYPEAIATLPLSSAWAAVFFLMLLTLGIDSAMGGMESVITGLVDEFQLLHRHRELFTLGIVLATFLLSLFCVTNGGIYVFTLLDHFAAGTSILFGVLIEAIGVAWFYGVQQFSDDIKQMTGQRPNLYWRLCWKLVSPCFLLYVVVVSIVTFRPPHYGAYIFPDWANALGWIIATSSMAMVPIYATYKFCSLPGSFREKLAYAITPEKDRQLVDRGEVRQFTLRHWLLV
serotonin transporter (SERT), sequence (Q60857 whole entry): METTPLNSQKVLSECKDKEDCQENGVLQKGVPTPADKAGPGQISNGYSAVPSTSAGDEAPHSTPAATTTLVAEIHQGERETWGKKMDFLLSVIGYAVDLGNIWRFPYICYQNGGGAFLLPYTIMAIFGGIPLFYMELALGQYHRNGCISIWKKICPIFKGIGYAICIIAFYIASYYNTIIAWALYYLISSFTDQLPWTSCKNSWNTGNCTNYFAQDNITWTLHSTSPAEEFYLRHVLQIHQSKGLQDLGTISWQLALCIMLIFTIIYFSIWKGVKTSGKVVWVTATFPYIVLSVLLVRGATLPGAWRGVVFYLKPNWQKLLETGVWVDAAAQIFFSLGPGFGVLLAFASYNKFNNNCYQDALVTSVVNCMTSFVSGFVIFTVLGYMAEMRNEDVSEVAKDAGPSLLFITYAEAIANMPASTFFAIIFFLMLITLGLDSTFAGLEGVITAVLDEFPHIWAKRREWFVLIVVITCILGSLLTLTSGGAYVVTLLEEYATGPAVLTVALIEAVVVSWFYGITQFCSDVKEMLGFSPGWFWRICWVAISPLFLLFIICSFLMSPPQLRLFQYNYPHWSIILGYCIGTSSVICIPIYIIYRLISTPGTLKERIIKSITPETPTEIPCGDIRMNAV

For `COc1cc(CCN2CCN(CCCc3ccccc3)CC2)ccc1OCCF` [FE-SA4503], the inhibition at 10 µM in assay [1] came to 19%.
As for `Fc1ccc(C(OCCN2CCN(CCCc3ccccc3)CC2)c2ccc(F)cc2)cc1` [GBR 12909], the Ki at σ1 receptors was 50.8 nM. Moreover, the “affinity for the norepinephrine transporter” value in assay [2] is listed as over 1000 nM.
Regarding `COc1ccc(CCN2CCN(CCCc3ccccc3)CC2)cc1OC` [SA4503, 1-[2-(3,4-dimethoxyphenyl)ethyl]-4-(3-phenylpropyl)piperazine], in assay [1], the Ki was 12700 ± 832 nM and the inhibition at 10 µM was 23%. The “higher affinity for SERT over DAT” value in assay [3] was 16 fold. The Ki in assay [4] was 50 nM.
Turning to `CCCOc1ccc(CCN2CCN(CCCc3ccccc3)CC2)cc1OC` [compound 1, 1-(3-methoxy-4-propoxyphenethyl)-4-(3-phenylpropyl)piperazine], the Ki in assay [1] is about 2000 nM.
`COc1cc(CCN2CCN(CCCc3ccccc3)CC2)ccc1OCc1ccccc1` [compound 4, 1-(4-(benzyloxy)-3-methoxyphenethyl)-4-(3-phenylpropyl)piperazine]: the “higher DAT affinity than SA4503” value in assay [1] (relative to parent SA4503) is reported as “over 100 fold”.
As for `c1ccc(CCCN2CCN(CCc3ccc4c(c3)OCO4)CC2)cc1` [compound 7, 1-(3,4-methylenedioxyphenethyl)-4-(3-phenylpropyl)piperazine], in assay [1], the Ki is about 2000 nM.
